Data on 25 molecules can be found in PubChem BioAssay AID192 (DTP/NCI, 2004).

This experiment relates to BDF1 mice, B16 melanoma ip, median survival T/C. Put plainly: NCI In Vivo Anticancer Drug Screen. Data for tumor model B16 Melanoma (intraperitoneal) in B6D2F1 (BDF1) mice. To be noted: endpoint: median survival time, higher = longer survival. Summed up:
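Vehicle-treated animals serve as the reference (C); treated animals (T) are scored for survival or tumor size after tumor transplantation.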

[1] abbreviates: dose: 100.0 mg/kg/injection, schedule: Q01DX009 (ip), vehicle: Klucel (hydroxypropylcellulose) (HPC).
Where [2] appears, read: dose: 12.5 mg/kg/injection, schedule: Q01DX009 (ip), vehicle: other.
The mark [3] stands for this setting: dose: 25.0 mg/kg/injection, schedule: Q01DX009 (ip), vehicle: other.
Where [4] appears, read: dose: 100.0 mg/kg/injection, schedule: Q01DX009 (ip), vehicle: saline with Tween-80.
Where [5] appears, read: dose: 200.0 mg/kg/injection, schedule: Q01DX009 (ip), vehicle: saline with Tween-80.
Setting [6] is: dose: 400.0 mg/kg/injection, schedule: Q01DX009 (ip), vehicle: saline with Tween-80.
Where [7] appears, read: dose: 50.0 mg/kg/injection, schedule: Q01DX009 (ip), vehicle: Klucel (hydroxypropylcellulose) (HPC).
The mark [8] stands for this setting: dose: 12.5 mg/kg/injection, schedule: Q01DX009 (ip), vehicle: saline with Tween-80.
Setting [9] is: dose: 25.0 mg/kg/injection, schedule: Q01DX009 (ip), vehicle: saline with Tween-80.
[10] abbreviates: dose: 50.0 mg/kg/injection, schedule: Q01DX009 (ip), vehicle: saline with Tween-80.
Where [11] appears, read: dose: 6.25 mg/kg/injection, schedule: Q01DX009 (ip), vehicle: saline with Tween-80.
[12] abbreviates: dose: 100.0 mg/kg/injection, schedule: Q01DX009 (ip), vehicle: saline.
Where [13] appears, read: dose: 200.0 mg/kg/injection, schedule: Q01DX009 (ip), vehicle: saline.
[14] abbreviates: dose: 50.0 mg/kg/injection, schedule: Q01DX009 (ip), vehicle: saline.
Setting [15] is: dose: 25.0 mg/kg/injection, schedule: Q01DX009 (ip), vehicle: Klucel (hydroxypropylcellulose) (HPC).

Several values for one entry are separate records, joined by “and”; a condition that tells them apart may be missing. Equal entries are not always repeated. Inconclusive results and toxic doses are left out.

As for `N#CC(CC(=O)c1ccc2c(c1)OCO2)c1ccc2c(c1)OCO2` (stereo not drawn), the T/C by setting is: under setting [1], 105 % of control; (dose: 200.0 mg/kg/injection, schedule: Q01DX009 (ip), vehicle: Klucel (hydroxypropylcellulose) (HPC)) 101 % of control; (dose: 400.0 mg/kg/injection, schedule: Q01DX009 (ip), vehicle: Klucel (hydroxypropylcellulose) (HPC)) 94 % of control.

Turning to `CC(=O)OCC(OC(C)=O)C(OC(C)=O)C(C#N)OC(C)=O` (stereo not drawn), the T/C runs as follows: (dose: 12.5 mg/kg/injection, schedule: Q04DX003 (ip), vehicle: Klucel (hydroxypropylcellulose) (HPC)) 100 % of control; (dose: 25.0 mg/kg/injection, schedule: Q04DX003 (ip), vehicle: Klucel (hydroxypropylcellulose) (HPC)) 95 % of control; (dose: 50.0 mg/kg/injection, schedule: Q04DX003 (ip), vehicle: Klucel (hydroxypropylcellulose) (HPC)) 97 % of control.

On to `CCCC1(CCC)c2ccccc2C(CCl)(OCC)c2ccccc21`, for which the T/C reads like this: under setting [2], 92 % of control; under setting [3], 102 % of control; (dose: 50.0 mg/kg/injection, schedule: Q01DX009 (ip), vehicle: other) 100 % of control; (dose: 75.0 mg/kg/injection, schedule: Q01DX009 (ip), vehicle: other) 86 % of control; (dose: 300.0 mg/kg/injection, schedule: Q01DX009 (ip), vehicle: other) 86 % of control.

Regarding `CCCCCCCCCCCCCCCCCC[n+]1cccc(C(=O)N2CCOCC2)c1`, the T/C runs as follows: (dose: 2.0 mg/kg/injection, schedule: Q01DX009 (ip), vehicle: saline sonified) 92 % of control; (dose: 4.0 mg/kg/injection, schedule: Q01DX009 (ip), vehicle: saline sonified) 100 % of control; (dose: 8.0 mg/kg/injection, schedule: Q01DX009 (ip), vehicle: saline sonified) 92 % of control; (dose: 16.0 mg/kg/injection, schedule: Q01DX009 (ip), vehicle: saline sonified) 92 % of control.

As to `O=[N+]([O-])c1cccc(S(=O)(=O)Nc2ccccc2Cl)c1`, the T/C was 90 % of control under setting [4], 95 % of control under setting [5] and 95 % of control under setting [6].

With `Cc1cc(C)c(OCC(O)CO)c(C)c1` (stereo not drawn), the T/C is, setting by setting: under setting [4], 104 % of control; under setting [5], 93 % of control.

Regarding `O=C(CCN1CCCCC1)c1cccc([N+](=O)[O-])c1`, the T/C is 105 % of control (dose: 12.5 mg/kg/injection, schedule: Q04DX003 (ip), vehicle: saline); 113 % of control (dose: 25.0 mg/kg/injection, schedule: Q04DX003 (ip), vehicle: saline); 100 % of control (dose: 50.0 mg/kg/injection, schedule: Q04DX003 (ip), vehicle: saline); 94 % of control (dose: 100.0 mg/kg/injection, schedule: Q04DX003 (ip), vehicle: Klucel (hydroxypropylcellulose) (HPC)).

Turning to `O=C1C(=O)c2ccccc2C(O)=C1CCCc1ccc(OCc2ccccc2)cc1`, the T/C is 101 % of control (dose: 5.0 mg/kg/injection, schedule: Q01DX009 (ip), vehicle: saline with Tween-80); 100 % of control (dose: 10.0 mg/kg/injection, schedule: Q01DX009 (ip), vehicle: saline with Tween-80); 103 % of control (dose: 20.0 mg/kg/injection, schedule: Q01DX009 (ip), vehicle: saline with Tween-80).

For `O=C(O)C1(C(=O)O)CCC1.[NH2-].[NH2-].[Pt+2]`, the T/C was 112 % of control (dose: 2.0 mg/kg/injection, schedule: Q01DX009 (ip), vehicle: saline); 115 % of control (dose: 4.0 mg/kg/injection, schedule: Q01DX009 (ip), vehicle: saline); 123 % of control (dose: 6.25 mg/kg/injection, schedule: Q01DX009 (ip), vehicle: other); 150 % of control (dose: 8.0 mg/kg/injection, schedule: Q01DX009 (ip), vehicle: saline); 176 % of control under setting [2]; 176 % of control (dose: 16.0 mg/kg/injection, schedule: Q01DX009 (ip), vehicle: saline). In addition, the T/C was 160 % of control and 164 % of control under setting [3]; 176 % of control (dose: 32.0 mg/kg/injection, schedule: Q01DX009 (ip), vehicle: saline).

In the case of `CCC1CCCCC1(O)CC` (stereo not drawn), the T/C under setting [7] is 98 % of control and the T/C under setting [1] is 99 % of control.

Consider `Cc1cc(=O)[nH]c(Nc2ccccc2)n1`, for which the T/C reads like this: under setting [4], 105 % of control; under setting [5], 92 % of control; under setting [6], 102 % of control.

For the molecule `CCCCN=[N+]=[N-]`, the T/C (dose: 25.0 mg/kg/injection, schedule: Q01DX009 (ip), vehicle: water) is 104 % of control; the T/C (dose: 50.0 mg/kg/injection, schedule: Q01DX009 (ip), vehicle: water) is 98 % of control; the T/C (dose: 100.0 mg/kg/injection, schedule: Q01DX009 (ip), vehicle: water) is 100 % of control; the T/C (dose: 200.0 mg/kg/injection, schedule: Q01DX009 (ip), vehicle: water) is 98 % of control.

On to `CCCn1cnc2c(=S)nc[nH]c21`, for which the T/C runs as follows: under setting [8], 120 % of control; under setting [9], 116 % of control; under setting [10], 106 % of control.

Take `CCC1CCCCN1C(=S)N/N=C(\C)c1ccccn1` (stereo not drawn): the T/C is, setting by setting: under setting [11], 96 % of control; under setting [8], 95 % of control.

As for `CC(=N/NC(N)=S)/C(C)=N/NC(N)=S`, the T/C under setting [12] was 118 % of control and the T/C under setting [13] is 97 % of control.

In the case of `Cc1ccc(/C=N\N=C\c2ccc(C)cc2)cc1`, the T/C is, setting by setting: under setting [10], 100 % of control; under setting [4], 88 % of control.

Consider `Clc1ccc2c(c1)C([P+](c1ccccc1)(c1ccccc1)c1ccccc1)c1cc(Cl)cc(Cl)c1-2` (stereo not drawn), for which the T/C under setting [4] was 89 % of control, the T/C under setting [5] was 95 % of control and the T/C under setting [6] is 89 % of control.

`c1ccc2c(c1)CNNC2`: the T/C was 123 % of control under setting [14], 111 % of control under setting [12] and 100 % of control under setting [13].

Regarding `CC(NC(=O)C(N)CCC(=O)O)C(=O)O` (stereo not drawn), the T/C reads like this: under setting [14], 97 % of control; under setting [12], 90 % of control; under setting [13], 90 % of control; (dose: 400.0 mg/kg/injection, schedule: Q01DX009 (ip), vehicle: saline) 94 % of control.

`Cc1[nH]ccc2c(C)c3nc4ccccc4c3cc12`: the T/C under setting [15] is 161 % of control.

Consider `C=C(C)C12OC3(/C=C/C=C/CCCCC)OC1C1C4OC4(CO)C(O)C4(O)C(=O)C(C)=CC4C1(O3)C(C)C2OC(=O)c1ccccc1` (stereo not drawn), for which the T/C is 104 % of control (dose: 0.5 micrograms/kg/injection, schedule: Q01DX009 (ip), vehicle: saline); 104 % of control (dose: 1.0 micrograms/kg/injection, schedule: Q01DX009 (ip), vehicle: saline); 105 % of control (dose: 1.9 micrograms/kg/injection, schedule: Q01DX009 (ip), vehicle: saline); 104 % of control (dose: 3.8 micrograms/kg/injection, schedule: Q01DX009 (ip), vehicle: saline); 97 % of control (dose: 7.5 micrograms/kg/injection, schedule: Q01DX009 (ip), vehicle: saline); 104 % of control (dose: 15.0 micrograms/kg/injection, schedule: Q01DX009 (ip), vehicle: saline). Moreover, the T/C (dose: 30.0 micrograms/kg/injection, schedule: Q01DX009 (ip), vehicle: saline) was 98 % of control.

In the case of `COc1cc2c(cc1OC)C13CCN4CC5=CCOC6CC(=O)N2C1C6C5CC43` (stereo not drawn) (tested in a mixture with another compound), the T/C is 103 % of control under setting [15] and 91 % of control under setting [7].

On to `CN(C1CCCCC1)C1CCCCC1`, for which the T/C (dose: 6.25 mg/kg/injection, schedule: Q01DX009 (ip), vehicle: Klucel (hydroxypropylcellulose) (HPC)) is 92 % of control; the T/C (dose: 12.5 mg/kg/injection, schedule: Q01DX009 (ip), vehicle: Klucel (hydroxypropylcellulose) (HPC)) is 92 % of control; the T/C under setting [15] was 94 % of control.

Regarding `BrC1c2cccc3cccc(c23)C1Br` (stereo not drawn), the T/C reads like this: under setting [11], 116 % of control; under setting [8], 113 % of control; under setting [9], 124 % of control; under setting [10], 121 % of control.

As to `Cc1cccc2c(C(=O)O)cc(-c3ccc(Cl)cc3)nc12`, the T/C runs as follows: under setting [8], 97 % of control; under setting [9], 97 % of control; under setting [10], 95 % of control.
